Test results published in patent publication US20100184852A1, “ORGANIC COMPOUNDS FOR TREATMENT OF DISORDERS CONNECTED TO IMPAIRED NEUROTRANSMISSION” (priority 2006, published 2010).

Columns and labels:
[1] = biological target: T1, human serotonin re-uptake transporter (hSERT) (Homo sapiens, UniProt P31645); experiment: Serotonin uptake inhibition in HEK-293 cells expressing hSERT; assay type: cell-based; settings: transfected HEK-293 cells; 20 nM (3H) serotonin, 30 minutes; average +/− s.e.m.; read-out: IC50 for tritiated serotonin uptake
T1 construct: host or cells: HEK-293
T1 sequence (P31645 whole entry): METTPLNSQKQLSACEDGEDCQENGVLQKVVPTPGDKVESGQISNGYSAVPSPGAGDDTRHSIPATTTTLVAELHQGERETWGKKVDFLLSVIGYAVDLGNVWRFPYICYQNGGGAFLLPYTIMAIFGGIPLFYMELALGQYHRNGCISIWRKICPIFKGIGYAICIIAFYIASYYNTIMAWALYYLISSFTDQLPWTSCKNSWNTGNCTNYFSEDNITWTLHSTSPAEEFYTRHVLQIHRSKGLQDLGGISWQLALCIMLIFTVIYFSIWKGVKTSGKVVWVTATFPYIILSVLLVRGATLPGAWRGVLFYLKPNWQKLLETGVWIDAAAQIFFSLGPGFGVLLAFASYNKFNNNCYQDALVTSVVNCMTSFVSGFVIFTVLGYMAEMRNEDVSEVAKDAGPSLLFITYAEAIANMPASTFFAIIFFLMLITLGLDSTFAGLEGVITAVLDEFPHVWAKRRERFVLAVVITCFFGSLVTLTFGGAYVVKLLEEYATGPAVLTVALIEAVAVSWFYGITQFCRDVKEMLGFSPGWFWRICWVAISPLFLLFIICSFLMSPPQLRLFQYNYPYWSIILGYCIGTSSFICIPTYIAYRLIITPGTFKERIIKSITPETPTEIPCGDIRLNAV
Experimental: HEK-293 cells stably expressing the human serotonin re-uptake transporter (hSERT) were obtained from R. Blakely, Vanderbilt University, USA. The cells were routinely grown in Dulbeco's Modified Eagles Medium, purchased from Bioconcept, Allschwil, Switzerland containing 10% fetal calf serum, penicillin, streptomycin, L-glutamine and the antibiotic G418 and passaged by trypsinisation. One day prior to the assay cells were seeded in the above mentioned medium. Immediately prior to the assay the medium was replaced by Krebs Ringers bicarbonate buffer, purchased from Sigma Chemicals Ltd., supplemented with 35 μM pargyline, 2.2 mM CaCl2, 1 mM ascorbic acid and 5 mM N-2-hydroxyethylpiperazine-N′-2-ethanesulfonic acid (buffer called “Hepes”). Serotonin uptake into the cells was determined by addition of radio-labeled (3H) serotonin (Amersham Biosciences GE Healthcare, Slough, UK) to a concentration of 20 nM, and incubation for 30 minutes at room temperature. Following removal of unincorporated label by gentle washing three times with the above buffer, incorporated serotonin was quantified by liquid scintillation counting.
The effect of the compounds of formula I on the serotonin uptake was determined by its inclusion in the assay at a range of concentrations between 0.03 and 100 μM for 10 minutes prior to and during the addition of (3H) serotonin/citalopram. Serotonin uptake via the transporter was inhibited by ligustilide, 3-butylphthalide, senkyunolide A, senkyunolide C, senkyunolide B, and cnidilide, respectively, in a dose dependent manner, with IC50 values as shown in Table 2.

[2] = biological target: T2, Monoamine oxidase B (MAO-B) (Homo sapiens, UniProt P27338); experiment: Monoaminooxidase B inhibition (H2O2/vanillic acid/HRP readout); assay type: biochemical; settings: substrate benzylamine 0.5 mM; +/− s.e.m.; read-out: IC50 [μM] for Inhibition of MAO-B
T2 sequence (P27338 1-520): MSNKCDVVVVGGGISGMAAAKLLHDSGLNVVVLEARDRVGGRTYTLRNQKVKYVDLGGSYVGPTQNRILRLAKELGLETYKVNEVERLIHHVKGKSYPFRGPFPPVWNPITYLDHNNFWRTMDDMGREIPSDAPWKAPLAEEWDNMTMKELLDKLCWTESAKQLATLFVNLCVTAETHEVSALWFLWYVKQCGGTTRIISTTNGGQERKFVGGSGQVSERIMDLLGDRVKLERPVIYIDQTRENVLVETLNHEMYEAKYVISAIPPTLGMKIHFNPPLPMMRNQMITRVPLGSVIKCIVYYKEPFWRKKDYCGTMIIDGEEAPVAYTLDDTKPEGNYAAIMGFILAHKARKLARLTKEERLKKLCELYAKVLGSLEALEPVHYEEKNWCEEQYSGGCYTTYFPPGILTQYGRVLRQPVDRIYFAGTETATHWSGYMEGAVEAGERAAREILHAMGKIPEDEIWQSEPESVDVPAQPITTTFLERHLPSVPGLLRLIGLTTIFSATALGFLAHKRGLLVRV
Experimental: (§1) The organic amines p-tyramine or benzylamine were used as substrates for the Monoamine oxidase A (MAO-A) and B (MAO-B) enzymes respectively. The H2O2 produced by this reaction was quantified by reaction with vanillic acid, catalysed by horse radish peroxidase (HRP).
(§2) The reactions were carried out in polystyrene microtitre plates. The MAO enzymes (final concentration 2 U/ml) were mixed with either p-tyramine (Sigma, final concentration 0.5 mM) or benzylamine (Sigma, final concentration 0.5 mM) as appropriate and the chromogenic solution (containing vanillic acid (Fluka), 4-aminoantipyrine (Fluka) and horse radish peroxidase (Sigma), final concentrations 0.25 mM, 0.125 mM and 1 U/ml respectively) in 0.2 M potassium phosphate buffer pH 7.6. The reactions were followed in a microtitre plate absorbance reader eg Spectramax M5 (Molecular Devices Corporation). Absorbance readings at 495 nm were taken every 15 seconds for 40 minutes and the initial reaction velocities calculated by linear regression using SOFTmaxPro (Molecular Devices Corporation).
(§3) The effect of ligustilide, 3-butylphthalide, senkyunolide C and cnidilide on the monoamine oxidase enzymes was determined by their inclusion in the assay at a range of concentrations between 0.03 and 100 μM for 10 minutes prior to and during the incubation with substrate. To determine the effect of the compounds on the HRP catalyzed portion of the reaction, the MAO enzyme was replaced by H2O2 (Molecular Probes, final concentration 0.2 mM). The reactions containing MAO-A and MAO-B were both inhibited by […] according to formula I in a dose dependent manner, whilst the control reaction, was unaffected. The measured IC50 values for inhibition of monoamine oxidase activity by ligustilide, 3-butylphthalide, senkyunolide C and enidilide, respectively, are shown in Table 3.

[3] = biological target: T3, Monoamine oxidase A (MAO-A) (Homo sapiens, UniProt P21397); experiment: Monoaminooxidase A inhibition (H2O2/vanillic acid/HRP readout); assay type: biochemical; settings: substrate p-tyramine 0.5 mM; +/− s.e.m.; read-out: IC50 [μM] for Inhibition of MAO-A
T3 sequence (P21397 1-527): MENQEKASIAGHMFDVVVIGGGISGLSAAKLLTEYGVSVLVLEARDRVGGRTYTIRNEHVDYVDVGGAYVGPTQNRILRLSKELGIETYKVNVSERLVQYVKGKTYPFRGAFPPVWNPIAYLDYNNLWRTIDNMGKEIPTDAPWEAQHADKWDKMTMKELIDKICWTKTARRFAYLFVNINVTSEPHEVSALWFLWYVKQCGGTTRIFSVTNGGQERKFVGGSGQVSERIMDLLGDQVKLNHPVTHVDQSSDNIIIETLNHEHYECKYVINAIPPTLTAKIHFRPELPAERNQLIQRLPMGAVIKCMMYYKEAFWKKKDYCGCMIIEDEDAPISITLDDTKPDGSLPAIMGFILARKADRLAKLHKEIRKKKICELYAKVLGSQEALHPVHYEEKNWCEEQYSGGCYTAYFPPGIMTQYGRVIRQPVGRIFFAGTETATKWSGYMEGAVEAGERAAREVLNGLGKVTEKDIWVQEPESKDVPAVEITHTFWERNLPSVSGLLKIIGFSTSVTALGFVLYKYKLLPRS
Experimental: as §1, §2, §3

mice = experiment: Marble burying test; assay type: in vivo, mouse; settings: 10 mg/kg p.o., −24, −5, −1 h
Experimental: A celery seed oil extract rich in phthalides was tested in the marble burying test. A crude extract from celery seed oil (Apium graveolens) obtained by supercritical CO2 fluid extraction of the seed was bought from Guanzhou Honsea Sunshine Bio Science & Technology, Guangzhou, 510620, Peopole's Republic of China. This extract (66.15 g) was distilled for about 2 hours in a ca. 30 cm Kugelrohr at a temperature of 125° C., under a pressure of 0.02 mbar. The distillate contained 18.12% butylphthalide, 0.87% butylidenphthalide, 35.37% senkyanolide, 20.99% sedanolide, 2.23% C16-fatty acid and 3.14% oleic acid, based on the total weight of the celery seed oil extract.
The marble burying test was performed in Type II cages (16×22 cm), which were filled with normal rodent bedding material, up to a depth of 4 cm, and the bedding was flattened gently by hand to ensure an even surface. […]
At the start of the test, mice were individually placed into the test cages and left to explore for 30 min. At the end of the test, the mice were removed from the cages and the number of marbles which have been buried (i.e. at least ⅔ covered with bedding) were counted. […]
Celery seed oil extract was evaluated after sub-chronic oral administration at 50, 100, 200, 300 mg/kg with fluoxetine at 10 mg/kg as reference substance and corn oil as vehicle. […]

Question: `CCCC[C@@H]1OC(=O)[C@@H]2C=CCC[C@H]12` [Cnidilide] was tested. Which IC50 [1] did it give?
Answer: 40.5 µM

Question: And the IC50 [2]?
Answer: 109 µM

Question: And the IC50 [3]?
Answer: > 100 µM

Question: How did the “% MARBLES BURIED” value (mice) turn out when `CNCCC(Oc1ccc(C(F)(F)F)cc1)c1ccccc1` (stereo not drawn) [Fluoxetine] was run?
Answer: −78%

Question: For `CCCC[C@@H]1OC(=O)C2=C1CCC=C2` [Senkyunolide A], which IC50 [1] is on record?
Answer: 32.5 µM

Question: How did the IC50 [1] turn out when `CCC/C=C1\OC(=O)c2c(O)cccc21` [Senkyunolide B] was run?
Answer: 75 µM

Question: Which results are given for `CCC/C=C1\OC(=O)c2ccc(O)cc21` [Senkyunolide C]?
Answer: IC50 [1]: 31.4 µM; IC50 [2]: 2.14 µM; IC50 [3]: 2.72 µM
